The values below come from article PMC3094505 (Structure (London, England : 1993), 2011).

The target in assay [1] is T1, CaM1-148 (full-length CaM) (Paramecium tetraurelia, UniProt P07463). Kind of assay: Fluorescence anisotropy titration of Fl-Nav1.2IQp with CaM1-148. It is filed as binding.
For assay [2], the target named is T2, CaM76-148 (C-domain of CaM) (Paramecium tetraurelia, UniProt P07463). Kind of assay: biochemical.
For assay [3], the target named is T2, CaM76-148 (C-domain of CaM). The note with it: read-out: Kd, Ca^2+-saturated CaM76-148 binding, stoichiometric binding, only an upper limit for Kd, fluorescence anisotropy, pH 7.4, 22 °C. In general terms: Fluorescence polarisation rises when a labelled molecule tumbles more slowly, as on binding a larger partner.
Assay [4] deals with CaM. The conditions noted are these: apo CaM compared with (Ca^2+)4-CaM.
Assay [5] addresses CaM1-80 (N-domain of CaM) (Paramecium tetraurelia, UniProt P07463). The assay is described as follows: Equilibrium Ca2+ titration of CaM1-80 with Nav1.2IQp. In kind it is biochemical. The note with it: 6 μM CaM, 9 μM Nav1.2IQp, 22 °C; phenylalanine fluorescence.
For assay [6], the target named is T1, CaM1-148 (full-length CaM). Kind of assay: Equilibrium Ca2+ titration of CaM1-148 with Nav1.2IQp. In kind it is biochemical.
Assay [7] concerns the target T1, CaM1-148 (full-length CaM). Kind of assay: Ca2+ titration of apo CaM1-148:Nav1.2IQp complex monitored by 15N/1H-HSQC. In kind it is biochemical. The note with it: 15N/1H-HSQC titration, pH 6.8.
A further assay has as its system (Ca^2+)4-CaM (CaM1-148). It is filed as binding, Paramecium. The conditions noted are these: Nav1.2_1913-1938 in 6-fold excess, fluorescence anisotropy (Figure S6A).
Assay [8] has as its system CaM. The conditions noted are these: ref Mori et al., 2000; cited from earlier work.

Like-named read-outs stand apart in the source and are kept apart here. Where no end group is shown, it is not given here.

In the case of “KRKQEEVSAIVIQRAYRRYLLKQKVKK [Fl-Nav1.2IQp]”, the Kd in assay [1], in assay [2] and in assay [3] was ≤ 10 nM each time.
As to KRKQEEVSAIVIQRAYRRYLLKQKVKK [Nav1.2IQp], in the assay on CaM [4], the “relative affinity for apo CaM versus (Ca^2+)4-CaM” value is reported as “higher affinity for apo CaM than (Ca^2+)4-CaM”. The “effect on Ca^2+ binding to sites I and II of CaM1-80” value in assay [5] is on record as “little effect”. The “effect on Ca^2+ binding to sites I and II of CaM1-148” value in assay [6] (6 μM CaM, 9 μM Nav1.2IQp, 22 °C, phenylalanine fluorescence) is reported as “little effect”. Besides, in [6] (overall, CaM, with versus without Nav1.2IQp (Figure 2D)), the “lowering of overall Ca^2+-binding affinity of CaM (free energy)” value amounted to 4.03 kcal/mol. Also, the “Ca^2+-binding affinity of sites I and II relative to sites III and IV of CaM1-148 bound to Nav1.2IQp” value in [7] is on record as “slightly more favorable”.
In the case of “QRAYRRYLLKQKVKKVSSIYKKDKGK [Nav1.2BAA-1913-1938]”, the “simultaneous binding of Nav1.2IQp and Nav1.2_1913-1938 to (Ca^2+)4-CaM” value with (Ca^2+)4-CaM (CaM1-148) is listed as “no evidence for simultaneous binding”. In addition, the “binding to (Ca^2+)4-CaM” value with CaM [8] is “binds to (Ca^2+)4-CaM”.

As usually defined, the Kd is the constant that tells how readily two partners part at equilibrium.
